Measurements reported in patent US6642201B1, “Use of a dipeptide for stimulating repair processes” (priority 1998, dated 2003).
Marks after values point to notes of the source that are not given here. Where a SMILES comes first, the peptide text is derived from it.

What was measured:
[1] = tested on: rats; test: Chronic toxicity, daily intramuscular administration for 6 months; format: in vivo; conditions: i.m. daily 0.3, 1, 3 mg/kg for 6 months
Experimental: Chronic toxicity of L-Lys-L-Glu dipeptide obtained by the claimed method was studied during its longitudinal administration to rats with body weight […]. The animals of experimental groups were exposed daily to single intramuscular administration of the substance in doses 1 mg/kg, 0.3 mg/kg, 3 mg/kg in 0.5 ml of sodium chloride solution for 6 months. There was analyzed animal behavior, as well as chow and water consumption, condition of hairy and of mucous surfaces. The animals were weighed daily during the first 3 months of the experiment and then once a month. In 3 months after the onset of administration and upon completion of the experiment hematological and biochemical examinations functions of cardiovascular system, liver, pancreas. kidney, and adrenal gland were conducted and estimated. Upon the termination of the drug administration some animals were exposed to pathomorphological examination with the purpose of studying the state of various departments of the brain and spinal marrow, heart, aorta, lungs, liver, organs of endocrine and immune systems.

[2] = tested on: purulent incised crushed wounds of the femural soft tissues; test: Healing of purulent incised crushed wounds of the soft tissues; format: in vivo, shinshilla rabbits; set-up: key: 1 point - absent; 2 points - single (traces); 3 points - few; 4 points - diffuse (moderately); 5 points - many-,; 6 points - very many; conditions: rabbits, 1 μkg i.m. daily 5 days
Text: The efficacy of L-Lys-L-Glu dipeptide was estimated on the model of purulent incised crushed wounds of the femural soft tissues in shinshilla rabbits of both sexes with body weight 2-3 kg. Therefore, the rabbits underwent shaving in the area of femural soft tissues with subsequent incision 5 cm long and 2 sm deep. Soft tissues (muscles, subcutaneous fat) were crushed with Kocher 's forcepts and infected with the pathogenic mixture Staphylococcus aureus, strain 186. Afterwards, the wound was sutured. In 72 hours the sutures were lifted; and the wound was treated with 3% solution of hydrogen peroxide.
The animals of experimental group were injected intramuscularly every day for five days with dipeptide L-Lys-L-Glu in a single dose 1 μkg per injection. Control rabbits were injected with sodium chloride solution according to the same scheme. In the process of treatment the wounds were treated with antiseptic remedies for external use.
The estimation of L-Lys-L-Glu dipeptide efficacy in the dynamics of the inflammatory process regression was based on the terms of crust rejection and wound clearance from the pyo-necrotic mass, and appearance of the granular tissue in the wound and beginning of edge epithelization. […] The activity of tissue enzymes was also estimated (5,6,7).

NCCCC[C@H](N)C(=O)N[C@@H](CCC(=O)O)C(=O)O [L-Lys-L-Glu dipeptide, L-lysil-L-glutamic acid] (H-Lys-Glu-OH)
side effects, chronic toxicity ([1]; doses exceeding therapeutic 100-1000 times): absence of side effects | pathological changes (general state, blood indices, intrinsic organs, cardio-vascular, respiratory, liver and kidney functions) ([1]; rats): no pathological changes | Alcaline phosphotase in leukocytes ([2]; day 6): 6* | Alcaline phosphotase in vessels ([2]; day 6): 6* | Acid phosphotase in histiocytes ([2]; day 14): 6* | Alcaline phosphotase in leukocytes ([2]; day 14): 6* | Alcaline phosphotase in leukocytes ([2]; day 28): 6 | Alcaline phosphotase in vessels ([2]; day 28): 4 | Alcaline phosphotase in vessels ([2]; day 40): 4*
